Measured values from PMC8365602 (Journal of Medicinal Chemistry, 2021).
Like-named read-outs stand apart in the source and are kept apart here.

Legend:
ovine COX-1 = biological target: T1, ovine COX-1 (Ovis aries, UniProt P05979); test: Isolated COX-1 activity; assay type: biochemical
T1 construct: purchased Cayman Chemicals
Procedure: Purified ovine COX-1 (Cayman Chemicals; 50 units) or human recombinant COX-2 (Cayman Chemicals; 20 units) was dissolved in 100 mM Tris buffer pH 8, 5 mM glutathione, 5 μM hemoglobin, and 100 μM EDTA. COX isoenzymes were preincubated with the vehicle (DMSO) or 27a for 5 min at 4 °C and 1 min at 37 °C. Addition of arachidonic acid (COX-1: 5 μM; COX-2: 2 μM) initiated the formation of COX-derived 12(S)-hydroxy-5-cis-8,10-trans-heptadecatrienoic acid (12-HHT), which was extracted and analyzed by RP-HPLC according to 5-LOX products.

5-LOX = biological target: T2, 5-LOX (Homo sapiens, UniProt P09917); test: 5-LOX product formation in activated PMNL;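 also: freshly isolated human PMNL in PBS pH 7.4 plus glucose, preincubated 10 min at 37 °C with compound, 5-LOX products (all-trans LTB4 isomers, 5-HETE) quantified by RP-HPLC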
T2 sequence (P09917 1-674): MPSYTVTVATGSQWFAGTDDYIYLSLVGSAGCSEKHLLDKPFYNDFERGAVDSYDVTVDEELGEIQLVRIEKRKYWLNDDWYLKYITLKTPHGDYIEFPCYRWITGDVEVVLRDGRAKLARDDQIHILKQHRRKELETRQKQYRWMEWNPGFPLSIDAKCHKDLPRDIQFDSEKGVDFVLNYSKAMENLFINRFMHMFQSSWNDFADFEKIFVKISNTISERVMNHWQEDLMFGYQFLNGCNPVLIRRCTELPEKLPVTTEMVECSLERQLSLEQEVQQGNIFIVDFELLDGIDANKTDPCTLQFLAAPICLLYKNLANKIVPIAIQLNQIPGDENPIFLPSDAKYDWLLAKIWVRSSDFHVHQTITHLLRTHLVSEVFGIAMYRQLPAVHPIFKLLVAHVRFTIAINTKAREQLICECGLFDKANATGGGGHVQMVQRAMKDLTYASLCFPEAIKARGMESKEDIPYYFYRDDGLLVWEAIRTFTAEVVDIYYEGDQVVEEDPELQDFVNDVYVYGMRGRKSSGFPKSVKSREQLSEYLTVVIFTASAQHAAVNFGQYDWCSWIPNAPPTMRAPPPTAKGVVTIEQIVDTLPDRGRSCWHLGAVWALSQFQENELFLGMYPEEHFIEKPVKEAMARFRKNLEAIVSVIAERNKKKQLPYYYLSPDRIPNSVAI

[1] = system: human macrophages (M1 subtype); test: Lipid mediator profile of M1 macrophages stimulated with pathogenic E. coli; assay type: cell-based; details: 1 μM
Procedure: Macrophages were polarized to the M1 phenotype by stimulation with LPS (100 ng/mL, Sigma-Aldrich) and interferon (IFN)-γ (20 ng/mL, Peprotech, Hamburg, Germany) for 48 h.[23]
Monocytes (1 × 10^6/mL), which were prestimulated with LPS (1 μg/mL) for 24 h to induce COX-2 expression, or M1 macrophages (2 × 10^6 cells/mL) were preincubated with the vehicle (0.1% DMSO), 27a, or 12a for 15 min. Arachidonic acid (20 μM) and A23187 (2.5 μM) were added to monocytes suspended in a monocyte medium (lacking FCS if indicated) to induce lipid mediator formation.[81]
Fatty acids and lipid mediators were extracted from macrophage supernatants or murine peritoneal exudates (1 mL) after addition of two aliquots of ice-cold methanol.[23]d8-5S-HETE, d4-LTB4, d5-lipoxin A4, d5-resolvin D2, d4-PGE2 (200 nM, each, Cayman Chemicals), and d8-arachidonic acid (10 μM, Cayman Chemicals) were added as internal standards. […] The columns were extensively washed with H2O and hexane before lipid mediators were eluted with methyl formate, evaporated to dryness, dissolved in methanol/H2O (50:50), and analyzed by UPLC-MS/MS.[23]
To quantify lipid mediators and fatty acids in macrophages, murine plasma, and murine peritoneal exudates, the mobile phase methanol/H2O (acidified with 0.01% acetic acid) was ramped from 42:58 to 86:14 over 12.5 min, followed by isocratic elution with methanol/H2O (98:2) for 3 min. […]

PMNL = test: fMLP-induced Ca2+ influx in PMNL; assay type: cell-based, human
Procedure: PMNL (1 × 10^6) were loaded with Fura-2/AM (2 nmol, Thermo Fisher Scientific) for 45 min at 37 °C. […] Intracellular Ca^2+ concentrations were measured using a NOVOstar fluorescence microplate reader (BMG Labtech, Ortenberg, Germany) at 37 °C. The emission wavelength was set to 510 nm and the excitation wavelengths to 340 nm (Ca^2+-bound Fura-2) and 380 nm (free Fura-2).[23] To define 100% Ca^2+ influx, the difference between the maximal influx (cell lysis by Triton X-100) and minimal influx (subsequent chelation of Ca^2+ by EDTA) was measured for each experiment.

human recombinant sEH = biological target: T3, human recombinant sEH (Homo sapiens, UniProt P34913); test: sEH activity; assay type: biochemical
T3 construct: made in house; host or cells: Sf9 insect cells (recombinant baculovirus)
Procedure: Human recombinant sEH was expressed in Sf9 insect cells and purified by affinity chromatography.[83] Briefly, Sf9 cells were infected with a recombinant baculovirus and lysed after 72 h in 50 mM NaHPO4 pH 8, 300 mM NaCl, 10% glycerol, 1 mM EDTA, 1 mM phenylmethanesulfonyl fluoride, 10 μg/mL leupeptin, and 60 μg/mL STI by sonication (3 × 10 s, 4 °C). […] Elution with 4-fluorochalcone oxide in PBS pH 7.4 with 1 mM dithiothreitol and 1 mM EDTA yielded sEH, which was dialyzed and concentrated.
Purified sEH (60 ng) in 25 mM Tris HCl pH 7 with 0.1 mg/mL bovine serum albumin (BSA) was preincubated with the vehicle (DMSO) or 27a for 10 min at room temperature. The sEH substrate PHOME (50 μM, Cayman Chemicals) was added to start the enzymatic reaction, which was stopped after 60 min in darkness by addition of ZnSO4 (200 mM). The formation of the fluorescent product 6-methoxynaphtaldehyde was measured using a NOVOstar fluorescence microplate reader (BMG Labtech, Ortenberg, Germany), with excitation at 330 and emission at 465 nm.

T3 sequence (P34913 whole entry): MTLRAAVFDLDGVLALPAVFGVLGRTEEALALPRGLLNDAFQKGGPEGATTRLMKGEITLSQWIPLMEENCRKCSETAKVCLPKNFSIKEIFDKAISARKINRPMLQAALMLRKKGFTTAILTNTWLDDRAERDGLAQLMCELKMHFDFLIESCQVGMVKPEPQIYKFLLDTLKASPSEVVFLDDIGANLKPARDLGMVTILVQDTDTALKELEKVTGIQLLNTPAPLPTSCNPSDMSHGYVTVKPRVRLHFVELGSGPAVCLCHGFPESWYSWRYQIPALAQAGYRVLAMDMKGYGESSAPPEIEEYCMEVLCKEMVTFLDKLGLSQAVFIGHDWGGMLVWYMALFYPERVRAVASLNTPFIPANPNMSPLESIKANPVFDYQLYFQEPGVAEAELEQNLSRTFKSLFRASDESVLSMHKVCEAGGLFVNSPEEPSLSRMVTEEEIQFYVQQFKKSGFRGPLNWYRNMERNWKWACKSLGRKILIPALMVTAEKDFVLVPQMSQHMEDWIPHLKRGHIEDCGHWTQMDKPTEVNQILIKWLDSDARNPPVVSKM
T1 sequence (P05979 25-600): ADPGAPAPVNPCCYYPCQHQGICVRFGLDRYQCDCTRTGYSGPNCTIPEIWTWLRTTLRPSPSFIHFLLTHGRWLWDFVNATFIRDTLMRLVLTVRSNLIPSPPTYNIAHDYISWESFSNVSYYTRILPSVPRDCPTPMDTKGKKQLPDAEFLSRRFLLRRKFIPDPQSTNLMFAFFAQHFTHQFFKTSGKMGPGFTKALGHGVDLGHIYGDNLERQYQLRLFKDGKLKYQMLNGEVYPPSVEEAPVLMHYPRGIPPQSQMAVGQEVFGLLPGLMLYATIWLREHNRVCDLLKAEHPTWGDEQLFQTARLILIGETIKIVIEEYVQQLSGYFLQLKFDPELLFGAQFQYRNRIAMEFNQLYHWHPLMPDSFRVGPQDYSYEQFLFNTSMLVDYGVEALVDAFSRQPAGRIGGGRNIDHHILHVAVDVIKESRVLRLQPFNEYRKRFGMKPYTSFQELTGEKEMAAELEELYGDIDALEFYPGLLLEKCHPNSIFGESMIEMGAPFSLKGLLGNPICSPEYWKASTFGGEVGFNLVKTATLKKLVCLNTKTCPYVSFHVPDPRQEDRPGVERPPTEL

With `C/C(=C\CC/C(C)=C/CC[C@]1(C)CCc2c(C)c(O)c(C)c(C)c2O1)CCC=C(CO)CO` [Compound 27a, α-amplexichromanol] the “COX-1 inhibition (isolated ovine enzyme)” value (ovine COX-1) was “not substantially inhibited”, the remaining activity at 3 µM (5-LOX; PMNL, read-out: 5-LOX PMNL residual activity at 3 μM) was 0.5 ± 0.1% and the IC50 (5-LOX; read-out: 5-LOX PMNL IC50, 5-LOX product formation in activated PMNL, mean ± SEM) was 40 ± 10 nM. For the same compound, the IC50 (5-LOX; read-out: IC50, 5-LOX product formation in PMNL, A23187) was 50 nM, the “Biosynthesis of 5-LOX-derived products in M1 macrophages” value [1] was “preferentially suppressed the biosynthesis of 5-LOX-derived products” and the “PGE2 levels in M1 macrophages” value [1] was “slightly increased”. The “Ca2+ influx” value (PMNL; 10 μM) was “substantially reduced”, the “Intracellular levels of Ca2+” value (PMNL; submicromolar concentrations (≤1 μM)) was “nor influenced intracellular levels of Ca^2+” and the sEH inhibition (human recombinant sEH) was “not substantially inhibited”.
